From patent publication EP4796176A2, “METHOD OF ALLEVIATING JOINT PAIN” (OrthoTrophix, Inc., priority 2017, dated 2026) come the findings set out here.

Where no end group is shown, it is not given here.

This data set relates to subjects with bilateral patello-femoral knee osteoarthritis. The data set is described as follows: Randomized double-blind placebo-controlled clinical study, safety and tolerability. Type of data set: in vivo, human. As for the experimental part:
A multicenter, randomized double-blind, placebo controlled study was designed to investigate the safety, tolerability, pharmacokinetics, and efficacy of TPX-100 administered in four weekly doses in subjects with bilateral patello-femoral knee osteoarthritis. The study was conducted under an open IND (investigational new drug application) at CDER (Center for Drug Evaluation and Research) of the U.S. FDA (The United States Food and Drug Administration) in compliance with GCP (Good Clinical Practice) and ICH (International Conference on Harmonization of Technical Requirements for Registration of Pharmaceuticals for Human Use) guidelines. Eighteen (18) orthopedic, rheumatologic and family practice centers in the U.S. participated in the study.
The study was divided into Part A and Part B. The Part A was to evaluate safety of intra-articular (I.A.) administration of TPX-100 at different dosing levels (20, 50, 100, or 200mg per injection in sequential cohorts) in the subjects with osteoarthritis of the knees and to select a dose adopted for the Part B. The Part B was to evaluate safety and efficacy of the selected dose of TPX-100.
Subjects in Part A enrolled in sequential cohorts were randomized to receive 20, 50, 100 or 200 mg of TPX-100 in one knee and identical placebo in the contralateral knee. Active and placebo assignments were randomized, with subject, site, and sponsor blinded as to treatment assignment. A Safety Review Committee (SRC) evaluated safety in each dosing cohort. The SRC assessed safety and dose-limiting toxicities, if evident, and determined whether the next higher dosing regimen might be enrolled. Part A were completed and analyzed with regard to safety prior to dose selection and initiation of Part B. […]
The 200mg dose was selected for Part B based on review and approval by the SRC. […] The combined final number of the subjects that were analyzed for the drug efficacy for 200mg dose of TPX-100 was 93.
On the first dosing day, the randomized subjects were assessed for their general health conditions by physical examinations and vital signs. […] Subjects were monitored for adverse events during the injections and for a few hours after the injections. Vital signs were also monitored after the injections.
Subjects returned to their respective study sites at 3, 6 and 12 months after the first dosing day for follow-up evaluations. In addition, the study sites monitored the subject's condition through telephone contact 9 months after the first dosing day. During the 3, 6, and 12 months post-treatment follow-up on-site visits, subjects were evaluated by physical examination, vital signs, serum chemistry, as well as KOOS. Adverse events and concomitant medications were also recorded. […]

Consider TDLQERGDNDISPFSGDGQPFKD-NH2 [TPX-100], for which, for the setting “Part A, 20, 50, 100 and 200 mg per injection, four weekly intra-articular injections”, the dose-limiting toxicities result is given as “no dose-limiting toxicities”. For the same substance, under “throughout the study period”, the severe adverse events result is listed as “no severe adverse events likely or possibly related to the drug treatment” and the treatment-related adverse events entry is “mild or moderate, transient”. For the same substance, the safety and tolerability result (throughout the study period (12 months)) was “safe and well tolerated”.
